According to paper PMC3681751, “Identification of a Novel Antimicrobial Peptide from Human Hepatitis B Virus Core Protein Arginine-Rich Domain (ARD)” (PLoS Pathogens, 2013):
Like-named read-outs stand apart in the source and are kept apart here. Non-standard residues stand in square brackets, D forms with d. No end group written: not given here. pS = N[C@@H](COP(=O)(O)O)C(=O)O

Experiments:
[1] = system: HepG2 cells; experiment: Peptide uptake into mammalian cells; format: cell-based, human; conditions: peptide added to the medium of HepG2 cells
Procedure: To set up CFSE cell proliferation assay, 293 cells (human kidney origin) and Vero cells (monkey kidney origin) were resuspended in PBS to a final concentration of 10^6 cells/ml, before incubation with 10 µM CFSE dye (CellTrace CFSE cell proliferation kit, Invitrogen) at 37°C for 10 min. To quench the staining, ice-old culture media were then added and incubated on ice for 5 min. Labeled cells were then pelleted and washed three times by fresh medium containing 10% FBS before seeding into six well plates at a density of 3.3×10^5cells/well. After 20 h, the medium was removed and incubated with fresh medium containing 5, 25 and 100 µM HBc 147-183 for one hour (FITC-labeled ARD peptide had been largely internalized in 10 minutes after the addition of ARD peptides to the medium of HepG2 cells). Forty-eight hours later, cells were harvested and analyzed by flow cytometry (FACSCanto, BD Bioscience).

[2] = system: tested bacteria and fungi; format: cell-based; conditions: summary over the tested bacteria of Table 1
Procedure: (§1) The antimicrobial activities of HBc ARD peptides were tested using a number of bacterial strains from ATCC, including Pseudomonas aeruginosa Migula strain (ATCC 27853, ampicillin-resistant), Pseudomonas aeruginosa Migula strain (ATCC 9027, ampicillin-resistant), Klebsiella pneumoniae strain (ATCC 17593), Escherichia coli strain (ATCC 25922), Staphylococcus aureus subsp. strain (ATCC 25923, methicillin-resistant), Staphylococcus aureus subsp. strain (ATCC 29213, methicillin-resistant), Staphylococcus aureus subsp. strain (ATCC 19636, methicillinresistant), and Candida albicans strain (ATCC 10231).
(§2) All peptides were purchased from Yao-Hong Biotechnology Inc. (Taipei, Taiwan). Vendors provided data of peptide characterizations, including HPLC and Mass (data not shown). Antimicrobial activity was determined as described with some modifications as detailed below. Bacteria were grown overnight in Mueller–Hinton broth (Difco) at 37°C, and during the mid-logarithmic phase, bacteria were diluted to 10^6 CFU (colony formation unit)/ml in phosphate buffer (10 mM sodium phosphate and 50 mM sodium chloride, pH 7.2). Peptides were serially diluted in the same buffer. Fifty microliter (µl) of bacteria was mixed with fifty µl of peptides at varying concentrations followed by incubation at 37°C for 3 hours without shaking. At the end of incubation, bacteria were placed on Mueller-Hinton broth agar plates, and allowed growth at 37°C overnight for measurement of minimal bactericidal concentration (MBC). […] All peptides were tested in triplicate.

[3] = system: K. pneumonia (ATCC 13884); format: cell-based, Klebsiella pneumoniae; conditions: triplicate
[4] = system: S. aureus (ATCC 29213); format: cell-based, Staphylococcus aureus; conditions: methicillin-resistant strain, triplicate
Procedure: as §1, §2

[5] = system: S. aureus (ATCC 25923); format: cell-based, Staphylococcus aureus; conditions: methicillin-resistant strain, triplicate
Procedure: as §1, §2

[6] = system: S. aureus (ATCC 19636); format: cell-based, Staphylococcus aureus; conditions: methicillin-resistant strain, triplicate
Procedure: as §1, §2

[7] = system: E. coli (ATCC 25922); format: cell-based, Escherichia coli; conditions: triplicate
Procedure: as §1, §2

[8] = system: P. aeruginosa (ATCC 9027); format: cell-based, Pseudomonas aeruginosa; conditions: ampicillin-resistant strain, triplicate
Procedure: as §1, §2

[9] = system: P. aeruginosa (ATCC 27853); format: cell-based, Pseudomonas aeruginosa; conditions: ampicillin-resistant strain, triplicate
Procedure: as §1, §2

[10] = 3 h at 37°C in 10 mM sodium phosphate, 50 mM NaCl, pH 7.2, 10^6 CFU/ml, ND = not detectable
[11] = 3 h at 37°C in phosphate buffer pH 7.2

“FITC-labeled HBc147-183: FITC-labeled HBc147-183 used for localization by confocal microscopy (TVVRRRGRSPRRRTPSPRRRRSQSPRRRRSQSRESQC; also: FITC label, place not given here; UniProt P03147 147-183, looked up, fragment)” was tested, and the “Time after which peptide was largely internalized” value [1] was 10 min.
For “HBc155p: HBc147-183 phosphorylated on S155 (TVVRRRGRSPRRRTPSPRRRRSQSPRRRRSQSRESQC; phosphorylated S155; UniProt P03147 147-183, looked up, fragment)”, the “MBC for bacteria” value [2] was 8 µM, the “Antimicrobial activity, MBC” value [3, 10] was 1 µM and the “Antimicrobial activity, MBC” value [3, 11] was 4.67 µg/mL. The “Antimicrobial activity, MBC” value [4, 10] was 8 µM, the “Antimicrobial activity, MBC” value [4, 11] was 37.4 µg/mL and the “Antimicrobial activity, MBC” value [5, 10] was 8 µM. For the same substance, the “Antimicrobial activity, MBC” value [5, 11] was 37.4 µg/mL, the “Antimicrobial activity, MBC” value [6, 10] was 8 µM and the “Antimicrobial activity, MBC” value [6, 11] was 37.4 µg/mL. For the same substance, the “Antimicrobial activity, MBC” value [7, 10] was 8 µM, the “Antimicrobial activity, MBC” value [7, 11] was 37.4 µg/mL and the “Antimicrobial activity, MBC” value [8, 10] was 8 µM. The “Antimicrobial activity, MBC” value [8, 11] was 37.4 µg/mL, the “Antimicrobial activity, MBC” value [9, 10] was 8 µM and the “Antimicrobial activity, MBC” value [9, 11] was 37.4 µg/mL.
With “HBc170p: HBc147-183 phosphorylated on S170 (TVVRRRGRSPRRRTPSPRRRRSQ[pS]PRRRRSQSRESQC; UniProt P03147 147-183, looked up, fragment)” the “MBC for bacteria” value [2] was 32 µM, the “Antimicrobial activity, MBC” value [3, 10] was 8 µM and the “Antimicrobial activity, MBC” value [3, 11] was 37.4 µg/mL. For the same substance, the “Antimicrobial activity, MBC” value [4, 10] was roughly 32 µM, the “Antimicrobial activity, MBC” value [4, 11] was roughly 149.5 µg/mL and the “Antimicrobial activity, MBC” value [5, 10] was roughly 32 µM. The “Antimicrobial activity, MBC” value [5, 11] was roughly 149.5 µg/mL, the “Antimicrobial activity, MBC” value [6, 10] was roughly 32 µM and the “Antimicrobial activity, MBC” value [6, 11] was roughly 149.5 µg/mL. For the same substance, the “Antimicrobial activity, MBC” value [7, 10] was roughly 32 µM, the “Antimicrobial activity, MBC” value [7, 11] was roughly 149.5 µg/mL and the “Antimicrobial activity, MBC” value [8, 10] was roughly 32 µM. The “Antimicrobial activity, MBC” value [8, 11] was roughly 149.5 µg/mL, the “Antimicrobial activity, MBC” value [9, 10] was roughly 32 µM and the “Antimicrobial activity, MBC” value [9, 11] was roughly 149.5 µg/mL.
In the case of “HBc176p: HBc147-183 phosphorylated on S176 (TVVRRRGRSPRRRTPSPRRRRSQSPRRRR[pS]QSRESQC; UniProt P03147 147-183, looked up, fragment)”, the “MBC for bacteria” value [2] is reported as 8 µM, the “Antimicrobial activity, MBC” value [3, 10] is reported as 4 µM and the “Antimicrobial activity, MBC” value [3, 11] is reported as 18.68 µg/mL. For the same substance, the “Antimicrobial activity, MBC” value [4, 10] was 8 µM, the “Antimicrobial activity, MBC” value [4, 11] was 37.4 µg/mL and the “Antimicrobial activity, MBC” value [5, 10] was 8 µM. The “Antimicrobial activity, MBC” value [5, 11] was 37.4 µg/mL, the “Antimicrobial activity, MBC” value [6, 10] was 8 µM and the “Antimicrobial activity, MBC” value [6, 11] was 37.4 µg/mL. For the same substance, the “Antimicrobial activity, MBC” value [7, 10] was 8 µM, the “Antimicrobial activity, MBC” value [7, 11] was 37.4 µg/mL and the “Antimicrobial activity, MBC” value [8, 10] was 8 µM. The “Antimicrobial activity, MBC” value [8, 11] was 37.4 µg/mL, the “Antimicrobial activity, MBC” value [9, 10] was 8 µM and the “Antimicrobial activity, MBC” value [9, 11] was 37.4 µg/mL.
